Laboratory results from patent publication US7745636B2, “Hepatitis C virus inhibitors” (Bristol-Myers Squibb Company, priority 2006, dated 2010).

test system: HCV 1b-377-neo replicon cells; assay: HCV Replicon assay, HCV 1b-377-neo replicon cells; type: cell-based, HCV 1b genotype; conditions: Hepatitis C virus, Table 2, read-out: Range (EC50 against HCV 1b)
Protocol: An HCV Replicon assay was utilized in the present disclosure, and was prepared, conducted and validated as described in commonly owned PCT/US2006/022197 and in O'Boyle et. al. Antimicrob Agents Chemother. 2005 April; 49(4):1346-53.
HCV 1b-377-neo replicon cells were used to test the currently described compound series as well as cells resistant to compound A due to a Y2065H mutation in NS5A (described in application PCT/US2006/022197). The compounds tested were determined to have more than 10-fold less inhibitory activity on cells resistant to compound A than wild-type cells indicating a related mechanism of action between the two compound series. Thus, the compounds of the present disclosure can be effective to inhibit the function of the HCV NS5A protein and are understood to be as effective in combinations as previously described in application PCT/US2006/022197 and commonly owned WO/O4014852. Further, the compounds of the present disclosure can be effective against the HCV 1b genotype. It should also be understood that the compounds of the present disclosure can inhibit multiple genotypes of HCV. […] In one embodiment compounds of the present disclosure are active against the 1a, 1b, 2a, 2b, 3a, 4a, and 5a genotypes.

First: CCN(CC)C(C)C(=O)N1CCC[C@H]1c1nc(C(F)(F)F)c(-c2ccc(-c3ncc(-c4cnc([C@@H]5CCCN5C(=O)[C@@H](C)N(CC)CC)[nH]4)cn3)cc2)[nH]1 (stereo in doubt) [Example J51, (2R)-1-((2S)-2-(5-(4-(5-(2-((2S)-1-((2R)-2-(diethylamino)propanoyl)-2-pyrrolidinyl)-1H-imidazol-5-yl)-2-pyrimidinyl)phenyl)-4-(trifluoromethyl)-1H-imidazol-2-yl)-1-pyrrolidinyl)-N,N-diethyl-1-oxo-2-propanamine]
Second: CCN(CC)[C@@H](C(=O)N1CCC[C@H]1c1ncc(-c2ccc(-c3ncc(-c4c[nH]c([C@@H]5CCCN5C(=O)[C@@H](NC(=O)OC)C(C)C)n4)cn3)cc2)[nH]1)c1ccccc1 [Example D76, methyl ((1S)-1-(((2S)-2-(5-(2-(4-(2-((2S)-1-((2R)-2-(diethylamino)-2-phenylacetyl)-2-pyrrolidinyl)-1H-imidazol-5-yl)phenyl)-5-pyrimidinyl)-1H-imidazol-2-yl)-1-pyrrolidinyl)carbonyl)-2-methylpropyl) carbamate]
The EC50 of the first is higher: 1 to 99 nM for the first, 0.001 to 0.999 nM for the second. The second is the more potent here.

`COC(=O)N[C@H](C(=O)N1CCC[C@H]1c1ncc(-c2ccc(-c3ccc(-c4cnc([C@@H]5CCCN5C(=O)[C@@H](Nc5noc(N)n5)C(C)C)[nH]4)cc3)cc2)[nH]1)C(C)C` [cj-16, methyl((1S)-1-(((2S)-2-(5-(4′-(2-((2S)-1-(N-(5-amino-1,2,4-oxadiazol-3-yl)-L-valyl)-2-pyrrolidinyl)-1H-imidazol-5-yl)-4-biphenylyl)-1H-imidazol-2-yl)-1-pyrrolidinyl)carbonyl)-2-methylpropyl)carbamate] and `COC(=O)NC(C(=O)Nc1ncc(-c2ccc(-c3ccc(-c4cnc([C@@H]5CCCN5C(O)[C@@H](NC(=O)OC)C(C)C)[nH]4)cc3)cc2)[nH]1)C(C)C` (stereo partly drawn) [Example R36] fall in the same range of EC50: 0.001 to 0.999 nM for the first, 0.001 to 0.999 nM for the second.

First: COC(=O)N[C@@H](C(=O)N[C@@H](C)c1ncc(-c2ccc(-c3ccc(-c4cnc([C@H](C)NC(=O)[C@H](NC(=O)OC)c5ccccc5)[nH]4)cn3)cc2)[nH]1)c1ccccc1 [Example 152j-23, methyl ((1R)-2-(((1S)-1-(5-(6-(4-(2-((1S)-1-(((2R)-2-((methoxycarbonyl)amino)-2-phenylace-tyl)amino)eth-yl)-1H-imidazol-5-yl)phenyl)-3-pyridinyl)-1H-imidazol-2-yl)ethyl)amino)-2-oxo-1-phenylethyl)carbamate]
Second: COC(=O)N[C@@H](C(=O)N1CCC[C@H]1c1ncc(-c2ccc(-c3ccc(-c4cnc([C@@H]5CCCN5C(=O)[C@H](NC(=O)OC)c5ccccc5)[nH]4)nn3)cc2)[nH]1)c1ccccc1 [Example 152j-10, methyl ((1R)-2-((2S)-2-(5-(6-(4-(2-((2S)-1-((2R)-2-((methoxycarbonyl)amino)-2-phenylacetyl)-2-pyrrolidinyl)-1H-imidazol-5-yl)phenyl)-3-pyridazinyl)-1H-imidazol-2-yl)-1-pyrrolidinyl)-2-oxo-1-phenylethyl)carbamate]
The EC50 of the first is lower: 0.001 to 0.999 nM for the first, 1 to 99 nM for the second.

`C[C@@H](c1ncc(-c2ccc(-c3ccc(-c4cnc([C@@H]5CCCN5C(=O)[C@@H](c5ccccc5)N(C)C)[nH]4)cc3)cc2)[nH]1)N(C)C(=O)[C@@H](c1ccccc1)N(C)C` [Example 24-18-5, (2R)-2-(dimethylamino)-N-((1S)-1-(5-(4′-(2-((2S)-1-((2R)-2-(dimethylamino)-2-phenylacetyl)-2-pyrrolidinyl)-1H-imidazol-5-yl)-4-biphenylyl)-1H-imidazol-2-yl)ethyl)-N-methyl-2-phenylacetamide] and `CN(C)[C@@H](C(=O)N1CCC[C@H]1c1ncc(-c2ccc(-c3ccc(-c4cnc([C@@H]5CCCN5C(=O)[C@@H](c5ccccc5)N(C)C)[nH]4)cn3)cc2)[nH]1)c1ccccc1` [Example 132, (1R)-2-((2S)-2-(5-(6-(4-(2-((2S)-1-((2R)-2-(dimethylamino)-2-phenylacetyl)-2-pyrrolidinyl)-1H-imidazol-5-yl)phenyl)-3-pyridinyl)-1H-imidazol-2-yl)-1-pyrrolidinyl)-N,N-dimethyl-2-oxo-1-phenylethanamine] fall in the same range of EC50: 0.001 to 0.999 nM for the first, 0.001 to 0.999 nM for the second.

`C[C@@H](c1ncc(-c2ccc(-c3ncc(-c4cnc([C@@H]5CCCN5C(=O)[C@@H](c5ccccc5)N5CCCCC5)[nH]4)cn3)cc2)[nH]1)N(C)C(=O)[C@@H](c1ccccc1)N1CCCCC1` [Example 152j-6, (2R)-N-methyl-2-phenyl-N-((1S)-1-(4-(4-(5-(2-((2S)-1-((2R)-2-phenyl-2-(1-piperidinyl)acetyl)-2-pyrrolidinyl)-1H-imidazol-5-yl)-2-pyrimidinyl)phenyl)-1H-imidazol-2-yl)ethyl)-2-(1-piperidinyl)acetamide] and `COC(=O)N[C@@H](C(=O)N1CCC[C@H]1c1ncc(-c2ccc(-c3ncc(-c4cnc([C@@H]5CCCN5C(=O)Cc5cccnc5)[nH]4)cn3)cc2)[nH]1)c1ccccc1` [Example 152j-3, methyl ((1R)-2-oxo-1-phenyl-2-((2S)-2-(5-(4-(5-(2-((2S)-1-(3-pyridinylacetyl)-2-pyrrolidinyl)-1H-imidazol-5-yl)-2-pyrimidinyl)phenyl)-1H-imidazol-2-yl)-1-pyrrolidinyl)ethyl)car bamate] fall in the same range of EC50: 0.001 to 0.999 nM for the first, 0.001 to 0.999 nM for the second.

Compared with `CN(C)[C@@H](C(=O)N1CCC[C@H]1c1ncc(-c2cnc(-c3ncc(-c4cnc([C@@H]5CCCN5C(=O)[C@@H](c5ccccc5)N(C)C)[nH]4)cn3)nc2)[nH]1)c1ccccc1` [Example 153c-3, (1R,1′R)-2,2′-(2,2′-bipyrimidine-5,5′-diylbis(1H-imidazole-5,2-diyl(2S)-2,1-pyrrolidinediyl))bis(N, N-dimethyl-2-oxo-1-phenylethanamine)], `COC(=O)N[C@@H](C(=O)N1CCC[C@H]1c1ncc(-c2ccc(-c3ccc(-c4cnc([C@@H]5CCCN5C(=O)C5CCN(C)CC5)[nH]4)cn3)cc2)[nH]1)c1ccccc1` [Example 142, methyl ((1R)-2-((2S)-2-(5-(4-(5-(2-((2S)-1-((1-methyl-4-piperidinyl)carbonyl)-2-pyrrolidinyl)-1H-imidazol-5-yl)-2-pyridinyl)phenyl)-1H-imidazol-2-yl)-1-pyrrolidinyl)-2-oxo-1-phenylethyl)carbamate] is lower in EC50: 1000 to 10000 nM for the first, 1 to 99 nM for the second. The second is the more potent here.

With `COC(=O)N[C@H](C(=O)N1CCC[C@H]1c1nc(-c2cnc(-c3ccc(-c4cnc([C@@H]5CCCN5C(=O)[C@@H](NC(=O)OC)C(C)C)[nH]4)c(F)c3)nc2)c[nH]1)C(C)C` [Example D68, methyl ((1S)-1-(((2S)-2-(5-(2-fluoro-4-(5-(2-((2S)-1-((2S)-2-((methoxycarbonyl)amino)-3-methylbutanoyl)-2-pyrrolidinyl)-1H-imidazol-5-yl)-2-pyrimidinyl)phenyl)-1H-imidazol-2-yl)-1-pyrrolidinyl)carbonyl)-2-methylpropyl) carbamate] the EC50 was 0.001 to 0.999 nM.

same assay, conditions: Table 2, read-out: Range (EC50 against HCV 1b)

`CCC(CC)[C@H](NC(=O)OC)C(=O)O` [OL-5] and `COC(=O)N[C@H](C(=O)N1CCC[C@H]1c1ncc(-c2ccc(-c3ccc(-c4cnc([C@@H]5CCCN5C(=O)CN(C(C)C)C(C)C)[nH]4)cc3)cc2)[nH]1)C(C)C` [LS26] fall in the same range of EC50: 0.001 to 0.999 nM for the first, 0.001 to 0.999 nM for the second.
